The text below walks through data of ChEMBL document CHEMBL2176943, “Discovery of inhibitors to block interactions of HIV-1 integrase with human LEDGF/p75 via structure-based virtual screening and bioassays” (J Med Chem, 2012).

The source made the active and inactive calls. No cut-off for these calls is given here.

Series [1] deals with Human immunodeficiency virus type 1 integrase (Human immunodeficiency virus 1, UniProt Q7ZJM1). Put plainly: Inhibition of HIV1 His6-tagged integrase-human GST tagged LEDGF/p75 (373-442 residues) interaction after 30 mins by AlphaScreen assay.
A short description of series [2]: Therapeutic index, ratio of CC50 for human C8166 cells to EC50 for HIV-1 3B infected in C8166 cells. The format is cell-based. The conditions noted are these: read-out: Ratio CC50/EC50.
Series [3] concerns Human immunodeficiency virus 1. Put plainly: Antiviral activity against HIV-1 3B infected in C8166 cells assessed as virus-induced cytopathic effect measuring […] formation after 3 days by microscopy. In kind it is functional, organism-based. The conditions noted are these: Human immunodeficiency virus 1, 3B, C8166, 72 h. On the technique in general: Protection from cytopathic effect is a common read-out in antiviral testing.

Series [4] in a line: Cytotoxicity against human C8166 cells after 3 days by MTT assay. The format is cell-based. (In general: Tetrazolium assays rely on reduction of a dye to a coloured formazan, in cell work by metabolically active cells.)
Series [5] has as its target Human immunodeficiency virus type 1 integrase (Human immunodeficiency virus 1) (UniProt Q7ZJM1). Put plainly: Inhibition of nuclear translocation of HIV1 EGFP-labeled integrase expressed in human 293T cells at 86.73 uM after 24 hrs by microscopic analysis. In kind it is cell-based.
The target is the same in series [6]. The series can be described thus: Inhibition of nuclear translocation of HIV1 EGFP-labeled integrase expressed in human 293T cells at 36.40 uM after 24 hrs by microscopic analysis. The format is cell-based.
Series [7] has the same target. Put plainly: Inhibition of nuclear translocation of HIV1 EGFP-labeled integrase expressed in human 293T cells at 83.83 uM after 24 hrs by microscopic analysis. The format is cell-based.
The target is the same in series [8]. Put plainly: Inhibition of nuclear translocation of HIV1 EGFP-labeled integrase expressed in human 293T cells at 36 uM after 24 hrs by microscopic analysis. The format is cell-based.

Broadly, the IC50 is the point on the concentration scale where inhibition reaches its midpoint. A low value points to greater potency. `COc1cc(CC(NC(=O)CCCC[C@]23CCC(C)(C)C[C@H]2C2=CC[C@@H]4[C@@]5(C)CC[C@H](O)C(C)(C)[C@@H]5CC[C@@]4(C)[C@]2(C)CC3)C(=O)O)cc(OC)c1` (mixture of isomers) displayed an IC50 in series [1] of 1260 nM.
The EC50 is the concentration that produces a half-maximal response. The term CC50 denotes the concentration that lowers cell viability or growth by half. Read a high CC50 as better tolerance by the cells. Regarding `O=C(/C=C/c1cccc(O)c1O)c1c(O)cc(O)cc1O`, in series [1], the IC50 came out at 260 nM. In series [2], the selectivity ratio is 3.76. Moreover, in series [3], the EC50 came out at 29600 nM. Moreover, in series [4], the CC50 at 72 h came to 111000 nM. In addition, the inhibition entry in series [5] is “Active”.
Molecule `COc1ccccc1CC(NC(=O)CCCC[C@]12CCC(C)(C)C[C@H]1C1=CC[C@@H]3[C@@]4(C)CC[C@H](O)C(C)(C)[C@@H]4CC[C@@]3(C)[C@]1(C)CC2)C(=O)O` (mixture of isomers) gave an IC50 in series [1] of 4560 nM. That is a single-digit micromolar value.
As for `O=C(/C=C/c1cc(O)ccc1O)c1ccc(O)cc1O`, half-maximal inhibition in series [1] (IC50) was put at 3780 nM.
Turning to `Cc1cn([C@H]2C[C@H](N=[N+]=[N-])[C@@H](CO)O2)c(=O)[nH]c1=O` [ZIDOVUDINE], the selectivity ratio in series [2] turned out to be 473000. In series [3], the EC50 is 8.7 nM.
Turning to `CC1(C)CC[C@]2(C(=O)O)CC[C@]3(C)C(=CC[C@@H]4[C@@]5(C)CC[C@H](OC(=O)CC(C)(C)C(=O)O)C(C)(C)[C@@H]5CC[C@]43C)[C@@H]2C1`, in series [1], 5510 nM corresponded to half-maximal inhibition (IC50).
With `O=C(/C=C/c1ccccc1Cl)c1ccc(O)cc1O`, the midpoint of inhibition in series [1], the IC50, lay at 320 nM. Also, the selectivity ratio in series [2] amounted to 4.88. Moreover, in series [3], the EC50 was 1810 nM. The molecule further had a CC50 at 72 h in series [4] of 8830 nM. Besides, the inhibition result in series [6] was “Active”.
In series [1], `Cc1nc2ccccc2c(-c2cc(F)c3c(c2C)CCCO3)c1[C@H](OC(C)(C)C)C(=O)O` displayed an IC50 of 19 nM. In other words, the double-digit nanomolar range.
Same read-out and setting: to `O=C(/C=C/c1cccc(O)c1O)c1ccc(O)cc1O` [2,3,2',4'-TETRAHYDROXYCHALCONE] belongs 1700 nM.
As for `CCOc1cc(/C=C2\SC(=O)N(CC(=O)c3ccccc3)C2=O)c(Br)cc1OCc1ccc(C(=O)O)cc1`, the inhibition entry in series [7] is “Active”.
Take `O=C(/C=C/c1cc(F)cc(F)c1)c1ccc(O)cc1O`: the IC50 in series [1] stood at 1750 nM. This counts as single-digit micromolar.
For the molecule `O=C(NCc1cccc([N+](=O)[O-])c1)c1ccc(OCc2ccccc2)cc1O`, in series [1], inhibition was half-maximal at 3840 nM (IC50).
For `CC1(C)CC[C@]2(C(=O)O)CC[C@]3(C)C(=CC[C@@H]4[C@@]5(C)CC[C@H](OCc6cccc(C(=O)O)c6)C(C)(C)[C@@H]5CC[C@]43C)[C@@H]2C1`, the IC50 in series [1] came out at 1140 nM.
`O=C(/C=C/c1ccc(O)c(O)c1)O[C@H](Cc1ccc(O)c(O)c1)C(=O)O` [ROSMARINIC ACID]: 550 nM corresponded to half-maximal inhibition in series [1] (IC50).
On the same count and under the same terms, next, `O=C(/C=C/c1ccccc1O)c1cccc(O)c1O`: 1610 nM.
In series [1], `CC1(C)CC[C@]2(C(=O)O)CC[C@]3(C)C(=CC[C@@H]4[C@@]5(C)CC[C@H](OC(=O)C(=O)O)C(C)(C)[C@@H]5CC[C@]43C)[C@@H]2C1` showed an IC50 of 9940 nM.
For `CC1(C)CC[C@]2(CCCCC(=O)NC(Cc3ccccc3Cl)C(=O)O)CC[C@]3(C)C(=CC[C@@H]4[C@@]5(C)CC[C@H](O)C(C)(C)[C@@H]5CC[C@]43C)[C@@H]2C1` (mixture of isomers), half-maximal inhibition in series [1] (IC50) was put at 650 nM. Besides, in series [2], the selectivity ratio amounted to 2.12. For the same molecule, the inhibition entry in series [8] is “Active”. In addition, the EC50 in series [3] was determined as 36600 nM. The CC50 at 72 h in series [4] is 77500 nM.
In series [1], `CC1(C)CC[C@]2(C(=O)O)CC[C@]3(C)C(=CC[C@@H]4[C@@]5(C)CC[C@H](OCc6ccccc6)C(C)(C)[C@@H]5CC[C@]43C)[C@@H]2C1` yielded an IC50 of 700 nM.
`O=C(/C=C/c1ccccc1O)c1c(O)cc(O)cc1O` yielded an IC50 in series [1] of 6210 nM.
Regarding `COc1cccc(CC(NC(=O)CCCC[C@]23CCC(C)(C)C[C@H]2C2=CC[C@@H]4[C@@]5(C)CC[C@H](O)C(C)(C)[C@@H]5CC[C@@]4(C)[C@]2(C)CC3)C(=O)O)c1OC` (mixture of isomers), in series [1], it took 3220 nM to reach half-maximal inhibition (IC50).
Molecule `O=C(/C=C/c1ccccc1O)c1ccc(O)c(O)c1` displayed an IC50 in series [1] of 3670 nM.
